In assay [1] the test system is MDA-MB-231. Kind of assay: Antimigratory activity against human MDA-MB-231 cells assessed as density of migrated cells in scratched areas by wound scratch assay. The assay is classed as functional, cell-based.
Assay [2] deals with MDA-MB-231. The experiment in a line: Cytotoxicity against human MDA-MB-231 cells assessed as growth inhibition at 10 uM after 24 hrs by MTT assay relative to control. The assay is classed as functional. Particulars: MDA-MB-231, 24 h, read-out: GI. A general note: Tetrazolium dyes change colour on reduction, which living cells bring about.
Assay [3] concerns A-375. Kind of assay: Cytotoxicity against human A375 cells assessed as growth inhibition at 10 uM after 24 hrs by MTT assay relative to control. The assay is classed as functional. The settings on record: A-375, 24 h, read-out: GI.
Assay [4] relates to MDA-MB-231. Kind of assay: Inhibition of vimentin expression in human MDA-MB-231 cells. The assay is classed as functional, cell-based.
Assay [5] relates to MDA-MB-231. Kind of assay: Inhibition of alpha-smooth muscle actin expression in human MDA-MB-231 cells. The assay is classed as functional, cell-based.
The subject of assay [6] is A-375. The experiment in a line: Inhibition of collagen expression in human A375 cells. It is filed as functional, cell-based.
Assay [7] has as its system MDA-MB-231. The experiment in a line: Antiinvasive activity against human MDA-MB-231 assessed as inhibition of tumor invasion cells by transwell invasion assay. It is filed as functional, cell-based.
Assay [8] concerns A-375. Kind of assay: Inhibition of fibronectin expression in human A375 cells. The assay is classed as functional, cell-based.
The subject of assay [9] is MDA-MB-231. Kind of assay: Inhibition of collagen expression in human MDA-MB-231 cells. It is filed as functional, cell-based.
For assay [10], the system named is MDA-MB-231. The experiment in a line: Inhibition of fibronectin expression in human MDA-MB-231 cells. The assay is classed as functional, cell-based.
The subject of assay [11] is MDA-MB-231. Kind of assay: Inhibition of Rab27a expression in human MDA-MB-231 cells. It is filed as functional, cell-based.
Assay [12] has as its system A-375. The experiment in a line: Antiinvasive activity against human A375 cells assessed as inhibition of tumor invasion by transwell invasion assay. The assay is classed as functional, cell-based.
In assay [13] the test system is A-375. The experiment in a line: Antimigratory activity against human A375 cells assessed as inhibition of cell migration by wound scratch assay. It is filed as functional, cell-based.
In assay [14] the test system is MDA-MB-231. Kind of assay: Inhibition of N-cadherin expression in human MDA-MB-231 cells. It is filed as functional, cell-based.
Assay [15] concerns A-375. Kind of assay: Inhibition of N-cadherin expression in human A375 cells. It is filed as functional, cell-based.
The subject of assay [16] is A-375. Kind of assay: Inhibition of alpha-smooth muscle actin expression in human A375 cells. It is filed as functional, cell-based.
The test system of assay [17] is A-375. The experiment in a line: Inhibition of vimentin expression in human A375 cells. The assay is classed as functional, cell-based.
Assay [18] has as its system A-375. The experiment in a line: Inhibition of Rab27a expression in human A375 cells. The assay is classed as functional, cell-based.

The source made the active and inactive calls. The rule behind the calls is not given here.

For `O=S(=O)(c1ccc(N/N=C/c2ccc(O)c(O)c2)nc1)N1CCCC1`, the result with MDA-MB-231 [1] was Active. In addition, the inhibition of growth at 10 µM in the assay on MDA-MB-231 [2] is -13.6%; with A-375 [3], -2.01%.
Regarding `O=S(=O)(Nc1cc(Cl)ccc1O)c1ccc(N/N=C/c2ccc(O)c(O)c2)nc1`, the inhibition of growth at 10 µM in the assay with MDA-MB-231 [2] is 7.47%; in the assay with A-375 [3], -3.03%.
For `COCCNS(=O)(=O)c1ccc(N/N=C/c2ccc(O)c(O)c2)nc1` the same measures were -9.95% and -11.4%.
For `O=S(=O)(Nc1ccc(O)cc1)c1ccc(N/N=C/c2ccc(O)c(O)c2)nc1`, in that order: -1.92% and -15.1%.
Take `CN(Cc1ccccc1)S(=O)(=O)c1ccc(N/N=C/c2ccc(O)c(O)c2)nc1`: the result with MDA-MB-231 [1] was Active. The inhibition entry with MDA-MB-231 [4], with MDA-MB-231 [5], in the assay with A-375 [6], with MDA-MB-231 [7], with A-375 [8] and in the assay with MDA-MB-231 [9] was “Active” throughout. In addition, the inhibition result in the assay with MDA-MB-231 [10], in the assay on MDA-MB-231 [11], with A-375 [12], in the assay with A-375 [13], in the assay with MDA-MB-231 [14] and in the assay with A-375 [15] was “Active” each time. Further, the inhibition entry with A-375 [16], in the assay with A-375 [17] and in the assay on A-375 [18] was “Active” throughout. The inhibition of growth at 10 µM is 24.6% in the assay with MDA-MB-231 [2] and 49.4% in the assay on A-375 [3].
As to `O=S(=O)(Nc1cccc(Cl)c1)c1ccc(N/N=C/c2ccc(O)c(O)c2)nc1`, the outcome in the assay on MDA-MB-231 [1] was Active. The inhibition result in the assay on MDA-MB-231 [4], in the assay with MDA-MB-231 [7], in the assay on MDA-MB-231 [11], in the assay with A-375 [12], in the assay with A-375 [13] and in the assay with MDA-MB-231 [14] was “Active” in each case. In addition, the inhibition result with A-375 [15], with A-375 [17] and in the assay on A-375 [18] was “Active” throughout. The inhibition entry with MDA-MB-231 [5], in the assay on A-375 [6], in the assay with A-375 [8], with MDA-MB-231 [9], with MDA-MB-231 [10] and in the assay with A-375 [16] was “inactive” each time. Also, the inhibition of growth at 10 µM with MDA-MB-231 [2] is 26.3%; with A-375 [3] it was 71.7%.
For `C[C@@H](NS(=O)(=O)c1ccc(N/N=C/c2ccc(O)c(O)c2)nc1)C1CCCCC1`, the inhibition of growth at 10 µM in the assay on MDA-MB-231 [2] is -25.8%; with A-375 [3], 3.45%.
On to `O=S(=O)(c1ccc(N/N=C/c2ccc(O)c(O)c2)nc1)N1CCc2ccccc2C1`, for which the outcome in the assay with MDA-MB-231 [1] was inactive. Moreover, the inhibition result in the assay on MDA-MB-231 [4] and in the assay with A-375 [17] was “Active” throughout. Also, the inhibition entry with MDA-MB-231 [5], in the assay on A-375 [6], in the assay on MDA-MB-231 [7], with A-375 [8], in the assay with MDA-MB-231 [9] and in the assay with MDA-MB-231 [10] was “inactive” each time. Further, the inhibition entry with A-375 [12], in the assay with A-375 [13], in the assay on MDA-MB-231 [14], in the assay with A-375 [15] and in the assay with A-375 [16] was “inactive” in each case. Besides, the inhibition of growth at 10 µM in the assay on MDA-MB-231 [2] is 14.9%; in the assay on A-375 [3], 8.41%.
`O=S(=O)(c1ccc(N/N=C/c2ccc(O)c(O)c2)nc1)N1CCC(O)CC1`: the inhibition of growth at 10 µM in the assay with MDA-MB-231 [2] is -15.8%; with A-375 [3], -14.1%.
For `CN(C)S(=O)(=O)c1ccc(N/N=C/c2ccc(O)c(O)c2)nc1` the same measures were 4.81% and 1.44%.
As to `O=S(=O)(c1ccc(N/N=C/c2ccc(O)c(O)c2)nc1)N1CCOCC1`, the inhibition of growth at 10 µM in the assay on MDA-MB-231 [2] is -5.98%; in the assay with A-375 [3], -9.25%.
For `O=S(=O)(NCc1cccc2ccccc12)c1ccc(N/N=C/c2ccc(O)c(O)c2)nc1`, in that order: -21% and -13.8%.
For the compound `CCOC(=O)CN(C)S(=O)(=O)c1ccc(N/N=C/c2ccc(O)c(O)c2)nc1`, the inhibition of growth at 10 µM with MDA-MB-231 [2] was 0.97%; in the assay on A-375 [3], -13.7%.
As for `O=S(=O)(c1ccc(N/N=C/c2ccc(O)c(O)c2)nc1)N1CCCCC1`, the outcome in the assay with MDA-MB-231 [1] was Active. Besides, the inhibition of growth at 10 µM in the assay with MDA-MB-231 [2] was -15.6%; in the assay with A-375 [3] it was 5.06%.
Regarding `CN1CCN(S(=O)(=O)c2ccc(N/N=C/c3ccc(O)c(O)c3)nc2)CC1`, the inhibition of growth at 10 µM with MDA-MB-231 [2] was found to be 2.1%; in the assay on A-375 [3], 1.29%.
